In one experiment the target is T1, RET wild type (Homo sapiens, UniProt P07949).
T1 construct: purchased Invitrogen
Description: RET biochemical assay (EZ Reader mobility shift). Particulars: 30 min pre-incubation, 200 μM ATP, exact potency beyond measurable limit. The procedure:
Suitable screening assays for RET and VEGFR2 small molecule kinase inhibitors (from a kinase-directed fragment (KDF) library) were established. The RET kinase assay utilizes an EZ Reader Electrophoresis Mobility Chip Instrument (Caliper Life Science). In the assay, 2 nM recombinant RET enzyme (Invitrogen) is pre-incubated with a small molecule inhibitor or control buffer for 30 min to allow the Type-II kinase inhibitor to trap the DFG-out conformation to which the inhibitors bind. This class of inhibitors is indirectly competitive with ATP, and slow binding kinetics (low kd) allow the inhibitors to appear non-competitive and pseudo-irreversible in nature. Because of the non-competitive nature of these inhibitors, a more biologically relevant concentration of ATP substrate (200 μM) was incorporated in this assay. After 30 min of pre-incubation, a substrate mix containing […], 20 mM MgCl2 and 1.5 μM fluorescently labeled RET substrate peptide (Caliper LS, peptide 22; Perkin Elmer, USA) was added. The conversion level of the RET substrate peptide was then determined utilizing the EZ Reader instrument. […]
The RET kinase assay utilizes a microfluidics based instrument for direct kinase activity readout (Caliper Life Science). […] The conversion level of the RET substrate peptide was determined utilizing the EZ Reader instrument. […]

In the next experiment the target is T2, RET/C634W (Homo sapiens, UniProt P07949, C634W).
T2 construct: RET protein endogenously expressed in TT cells; endogenous in cells; host or cells: TT (human medullary thyroid carcinoma)
Description: RET auto-phosphorylation immunoblot in TT cells. Format: cell-based. The note with it: 1 nM. The procedure: FIG. 3: Photographs of blots showing inhibition of RET protein endogenously expressed in TT cells (human MTC cell line expressing RET/C634W) by indicated concentrations of Pz-1 or vehicle (NT: not treated) and reduced effects in thyroid non-transformed Nthy-ori-3-1 cells. Serum-starved human TT and thyroid non-transformed Nthy-ori-3-1 cell lines were treated for 2 hr with indicated concentrations of Pz-1. 50 μg of total cell lysates were subjected to immunoblotting with anti-phospho-Y1062 (αp1062) and anti-phospho-905 (αpY905) RET antibodies, anti-phospho-MAPK (αpMAPK, T302/Y304), and anti-phospho-SHC (αpSHC, Y317) antibodies. The blots were normalized using anti-RET (αRET) and anti-SHC (αSHC).
The inhibition of RET auto-phosphorylation by Pz-1 was measured in several different cell lines including NIH3T3 fibroblasts expressing RET/C634Y or RET/M918T, TT expressing RET/C634W (MTC), Nthy-ory-3-1 (thyroid, non-transformed with RET; negative control), HEK293/RET/PTC1 (CCDC6-RET that can be found in PTC & lung cancer), HEK293/RET-KIF5B (that can be found in lung cancer), HEK293/RET/PTC3 (NCOA4-RET, that can be found in PTC & lung cancer), and HEK293 transfected with RET/C634R-V804M (FIGS. 1-3). […]
Protein lysates were prepared according to standard procedures. […] Immune complexes were detected with the enhanced chemiluminescence kit (Amersham Pharmacia Biotech, Little Chalfort, UK). […]

T1 sequence (P07949 724-1016 limits assumed): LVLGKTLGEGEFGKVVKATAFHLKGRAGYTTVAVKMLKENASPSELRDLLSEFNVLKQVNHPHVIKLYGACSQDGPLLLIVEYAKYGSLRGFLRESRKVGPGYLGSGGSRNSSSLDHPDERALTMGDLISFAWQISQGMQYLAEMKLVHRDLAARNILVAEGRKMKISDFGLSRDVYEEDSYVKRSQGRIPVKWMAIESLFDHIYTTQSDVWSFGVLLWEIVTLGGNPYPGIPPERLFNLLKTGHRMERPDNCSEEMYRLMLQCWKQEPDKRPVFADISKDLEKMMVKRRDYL
T2 sequence (P07949 29-1114 C634W): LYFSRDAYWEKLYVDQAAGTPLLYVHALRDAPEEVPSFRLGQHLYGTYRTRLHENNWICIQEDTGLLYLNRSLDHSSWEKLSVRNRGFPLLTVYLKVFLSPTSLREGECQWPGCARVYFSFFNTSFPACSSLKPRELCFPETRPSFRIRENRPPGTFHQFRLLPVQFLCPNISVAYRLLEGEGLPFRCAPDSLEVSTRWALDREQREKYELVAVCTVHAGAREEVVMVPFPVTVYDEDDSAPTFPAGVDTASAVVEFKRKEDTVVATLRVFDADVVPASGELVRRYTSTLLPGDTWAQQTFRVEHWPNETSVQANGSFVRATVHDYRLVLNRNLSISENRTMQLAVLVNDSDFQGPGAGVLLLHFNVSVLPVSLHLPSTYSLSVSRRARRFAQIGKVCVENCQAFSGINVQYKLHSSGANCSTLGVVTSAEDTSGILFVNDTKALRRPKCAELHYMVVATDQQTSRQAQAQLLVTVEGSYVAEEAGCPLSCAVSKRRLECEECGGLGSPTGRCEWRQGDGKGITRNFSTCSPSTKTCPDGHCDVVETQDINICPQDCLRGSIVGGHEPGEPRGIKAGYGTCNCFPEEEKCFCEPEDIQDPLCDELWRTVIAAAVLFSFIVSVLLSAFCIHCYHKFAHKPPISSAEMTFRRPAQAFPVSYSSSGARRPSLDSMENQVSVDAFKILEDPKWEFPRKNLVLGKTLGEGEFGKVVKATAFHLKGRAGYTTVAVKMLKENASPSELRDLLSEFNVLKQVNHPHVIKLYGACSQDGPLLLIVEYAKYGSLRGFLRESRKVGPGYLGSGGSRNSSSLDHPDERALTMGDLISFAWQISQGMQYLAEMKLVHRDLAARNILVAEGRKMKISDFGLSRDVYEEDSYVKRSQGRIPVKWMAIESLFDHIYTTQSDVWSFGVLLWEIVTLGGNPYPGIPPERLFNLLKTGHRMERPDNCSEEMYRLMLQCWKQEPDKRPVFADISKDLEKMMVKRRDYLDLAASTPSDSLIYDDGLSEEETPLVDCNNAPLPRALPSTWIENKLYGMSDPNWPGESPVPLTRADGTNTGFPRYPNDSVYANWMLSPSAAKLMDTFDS

As to `Cn1cc(-c2ccc3c(c2)ncn3-c2ccc(CC(=O)Nc3cc(C(C)(C)C)on3)cc2)cn1` [Pz-1, N-(5-(tert-butyl)isoxazol-3-yl)-2-(4-(5-(1-methyl-1H-pyrazol-4-yl)-1H-benzo[d]imidazol-1-yl)phenyl)acetamide], on RET wild type, the IC50 (as a rule, the point on the concentration scale where inhibition reaches its midpoint) is under 1 nM. Further, the “inhibition of pRET” value at RET/C634W is on record as “strongly inhibited”.
